Assay results reported in patent publication US20220242863A1, “COMPOUNDS FOR TREATMENT OF EYE DISORDERS” (SINOPSEE THERAPEUTICS, priority 2019, published 2022).
Like-named read-outs stand apart in the source and are kept apart here.

Experiments:
[1] = target: T1, PDGFRβ (Homo sapiens, UniProt P09619); experiment: Western blot of PDGFRβ autophosphorylation and Shp2 phosphorylation in HEK293 cell line model; format: cell-based; design: expressed in transfected cells; host or cells: HEK293; conditions: HEK293 cells expressing PDGFRβ, 20 ng/ml PDGF; FIG. 1
T1 sequence (P09619 33-1106): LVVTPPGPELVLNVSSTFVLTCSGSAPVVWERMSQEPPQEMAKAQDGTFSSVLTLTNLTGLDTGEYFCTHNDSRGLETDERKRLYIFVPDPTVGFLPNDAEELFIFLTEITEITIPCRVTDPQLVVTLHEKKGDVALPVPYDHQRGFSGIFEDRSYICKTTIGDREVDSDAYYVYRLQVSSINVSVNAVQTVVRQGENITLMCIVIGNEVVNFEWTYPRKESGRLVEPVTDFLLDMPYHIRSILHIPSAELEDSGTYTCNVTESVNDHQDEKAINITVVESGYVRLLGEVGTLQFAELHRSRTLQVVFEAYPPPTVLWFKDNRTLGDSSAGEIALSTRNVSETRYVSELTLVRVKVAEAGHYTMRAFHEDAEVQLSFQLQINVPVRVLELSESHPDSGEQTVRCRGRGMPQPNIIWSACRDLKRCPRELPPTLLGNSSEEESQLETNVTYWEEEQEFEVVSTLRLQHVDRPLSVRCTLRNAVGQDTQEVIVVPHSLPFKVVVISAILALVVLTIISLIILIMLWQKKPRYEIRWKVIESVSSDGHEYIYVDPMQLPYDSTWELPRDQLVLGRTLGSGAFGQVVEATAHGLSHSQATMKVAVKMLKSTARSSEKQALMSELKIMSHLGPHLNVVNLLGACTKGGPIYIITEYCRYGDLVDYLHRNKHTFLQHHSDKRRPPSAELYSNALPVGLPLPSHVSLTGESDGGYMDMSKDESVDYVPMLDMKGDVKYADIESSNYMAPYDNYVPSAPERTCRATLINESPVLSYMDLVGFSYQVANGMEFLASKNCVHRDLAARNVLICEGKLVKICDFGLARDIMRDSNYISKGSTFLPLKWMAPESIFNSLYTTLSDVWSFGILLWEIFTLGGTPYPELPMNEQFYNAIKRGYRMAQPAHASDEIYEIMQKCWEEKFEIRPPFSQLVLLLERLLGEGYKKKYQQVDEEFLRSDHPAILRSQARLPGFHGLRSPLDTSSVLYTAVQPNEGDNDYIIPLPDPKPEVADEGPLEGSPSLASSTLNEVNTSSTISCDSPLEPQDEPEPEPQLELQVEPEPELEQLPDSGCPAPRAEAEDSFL
Method: Human Embryonic kidney cells (HEK293) were constructed to express human PDGFRWT under the control of constitutive CMV promoter. Cells were grown in the presence of 20 ng/ml PDGF (the ligand for the PDGFRβ) to activate the PDGFRβ. Different concentrations of the compounds of Examples 1 and 2 were added to study their effect on the PDGFRβ-mediated signaling. Autophosphorylation of PDGFRβ and Shp2 phosphorylation were monitored by Western blotting and were used as the markers for PDGFRβ signaling. β-Actin was used as an internal control.

[2] = tested on: BA/F3 cells expressing PDGFR; experiment: Cell viability by MTS assay (MTS Assay 1); format: cell-based; conditions: for Activity in MTS cell viability assay compared to imatinib and quizartinib controls: Ba/F3 cells expressing PDGFR, FIG. 2
Method: (§1) The effect of the compounds on cell viability were determined using MTS assay. MTS Cell Proliferation Assay Kit is a colorimetric method for sensitive quantification of viable cells in proliferation and cytotoxicity assay. The method is based on the reduction of MTS tetrazolium compound by viable cells to generate a colored formazan product that is soluble in cell culture media. BA/F3 cells expressing the receptor tyrosine kinase (either PDGFR [MTS Assay 1] or FIt3 [MTS Assay 2]) were cultured in standard culture conditions in a 96-well microtiter plate (final volume of 200 μl/well) in the absence or presence of the compound to be tested and were incubated for 20-48 hrs. MTS Reagent (20 μl/well) was added into each well & incubated for 0.5-4 hours at 37° C. in standard culture conditions. Absorbance at 490 nm was recorded using a plate reader.
(§2) Results are shown in FIGS. 2 and 3 and Table 2 (where IC50 indicates the concentration of compound required to reduce cell viability to 50%).
For the MTS Assay, the result indicates the concentration of compound required to reduce cell viability to 50%.

[3] = tested on: BA/F3 cells expressing FIt3; experiment: Cell viability by MTS assay (MTS Assay 2); format: cell-based; conditions: Mus musculus, BaF3, concentration required to reduce cell viability to 50%, 20-48 hrs
Method: as §1, §2
In Table 3: • L represents an IC50 of less than 500 nM • M represents an IC50 of between 500 nM and 5000 nM • H represents an IC50 of more than 5000 nM • For the MTS Assay, the result indicates the concentration of compound required to reduce cell viability to 50%.

[4] = target: T1, PDGFRβ; experiment: In vitro kinase assay ([γ-33P]-ATP); format: biochemical; conditions: ATP at apparent Km of the kinase
Method: (§3) To determine the inhibitory activity of compounds, in vitro kinase assays were performed on respective enzymes purified from Sf9 insect cells or E. coli as recombinant GST-fusion proteins or His-tagged proteins.

[5] = target: PDGFR-α (Homo sapiens, UniProt P16234); experiment: In vitro kinase assay ([γ-33P]-ATP); format: biochemical; conditions: ATP at apparent Km of the kinase
Chain of PDGFR-α (P16234 24-1089): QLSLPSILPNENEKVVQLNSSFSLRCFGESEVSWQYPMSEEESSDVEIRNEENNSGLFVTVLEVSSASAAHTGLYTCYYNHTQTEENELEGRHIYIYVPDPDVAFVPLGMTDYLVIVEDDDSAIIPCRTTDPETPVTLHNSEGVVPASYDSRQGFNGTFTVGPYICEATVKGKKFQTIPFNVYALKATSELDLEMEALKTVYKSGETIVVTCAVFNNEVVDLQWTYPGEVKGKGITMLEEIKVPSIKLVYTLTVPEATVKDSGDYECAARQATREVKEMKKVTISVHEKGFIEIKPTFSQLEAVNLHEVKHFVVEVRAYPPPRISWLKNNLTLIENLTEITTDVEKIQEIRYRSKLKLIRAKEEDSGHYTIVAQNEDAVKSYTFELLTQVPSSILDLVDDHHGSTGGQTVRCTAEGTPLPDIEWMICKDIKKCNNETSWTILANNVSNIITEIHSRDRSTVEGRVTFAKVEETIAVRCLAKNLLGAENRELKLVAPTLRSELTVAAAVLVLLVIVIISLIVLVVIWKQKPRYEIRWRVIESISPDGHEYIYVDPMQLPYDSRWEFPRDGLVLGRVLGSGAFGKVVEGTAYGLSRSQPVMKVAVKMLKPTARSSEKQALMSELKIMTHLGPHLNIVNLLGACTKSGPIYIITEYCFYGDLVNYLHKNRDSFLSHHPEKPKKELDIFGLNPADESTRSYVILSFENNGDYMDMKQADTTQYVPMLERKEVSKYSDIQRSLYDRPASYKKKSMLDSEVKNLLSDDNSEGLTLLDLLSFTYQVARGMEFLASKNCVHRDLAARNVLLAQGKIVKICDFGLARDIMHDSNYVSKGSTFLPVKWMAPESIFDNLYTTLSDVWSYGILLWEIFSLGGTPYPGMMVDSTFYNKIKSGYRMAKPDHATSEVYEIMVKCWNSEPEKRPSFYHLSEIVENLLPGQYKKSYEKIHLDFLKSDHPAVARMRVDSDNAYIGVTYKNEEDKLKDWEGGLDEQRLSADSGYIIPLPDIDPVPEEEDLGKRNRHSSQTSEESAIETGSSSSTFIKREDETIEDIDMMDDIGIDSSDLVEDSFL
Method: as §3

[6] = target: CDK8 (Homo sapiens, UniProt P49336); experiment: In vitro kinase assay ([γ-33P]-ATP); format: biochemical; conditions: ATP at apparent Km of the kinase
Chain of CDK8 (P49336 whole entry, species assumed): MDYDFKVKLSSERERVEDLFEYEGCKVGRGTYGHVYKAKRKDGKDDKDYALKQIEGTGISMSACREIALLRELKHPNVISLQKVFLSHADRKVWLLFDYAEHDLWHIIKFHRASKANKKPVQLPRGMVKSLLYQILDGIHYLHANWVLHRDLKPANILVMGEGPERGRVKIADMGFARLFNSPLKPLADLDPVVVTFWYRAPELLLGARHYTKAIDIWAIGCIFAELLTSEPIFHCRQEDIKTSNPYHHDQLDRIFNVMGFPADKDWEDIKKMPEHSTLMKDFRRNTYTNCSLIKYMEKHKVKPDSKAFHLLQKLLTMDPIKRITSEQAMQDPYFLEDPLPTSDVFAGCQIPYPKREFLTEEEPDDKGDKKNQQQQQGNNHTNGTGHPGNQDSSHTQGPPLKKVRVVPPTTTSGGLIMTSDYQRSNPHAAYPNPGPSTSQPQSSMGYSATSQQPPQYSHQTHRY
Chain of CDK8 (P24863 whole entry partner, species assumed): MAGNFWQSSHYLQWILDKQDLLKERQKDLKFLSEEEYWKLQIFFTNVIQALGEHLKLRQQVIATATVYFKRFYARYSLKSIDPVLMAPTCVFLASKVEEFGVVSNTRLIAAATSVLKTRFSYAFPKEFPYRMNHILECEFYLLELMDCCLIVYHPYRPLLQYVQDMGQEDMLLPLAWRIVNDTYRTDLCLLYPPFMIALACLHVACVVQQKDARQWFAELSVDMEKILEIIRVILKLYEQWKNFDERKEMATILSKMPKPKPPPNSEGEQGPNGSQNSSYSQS
Method: as §3

[7] = target: T2, Flt3 (Homo sapiens, UniProt P36888); experiment: In vitro kinase assay ([γ-33P]-ATP); format: biochemical; conditions: ATP at apparent Km of the kinase
T2 sequence (P36888 27-993): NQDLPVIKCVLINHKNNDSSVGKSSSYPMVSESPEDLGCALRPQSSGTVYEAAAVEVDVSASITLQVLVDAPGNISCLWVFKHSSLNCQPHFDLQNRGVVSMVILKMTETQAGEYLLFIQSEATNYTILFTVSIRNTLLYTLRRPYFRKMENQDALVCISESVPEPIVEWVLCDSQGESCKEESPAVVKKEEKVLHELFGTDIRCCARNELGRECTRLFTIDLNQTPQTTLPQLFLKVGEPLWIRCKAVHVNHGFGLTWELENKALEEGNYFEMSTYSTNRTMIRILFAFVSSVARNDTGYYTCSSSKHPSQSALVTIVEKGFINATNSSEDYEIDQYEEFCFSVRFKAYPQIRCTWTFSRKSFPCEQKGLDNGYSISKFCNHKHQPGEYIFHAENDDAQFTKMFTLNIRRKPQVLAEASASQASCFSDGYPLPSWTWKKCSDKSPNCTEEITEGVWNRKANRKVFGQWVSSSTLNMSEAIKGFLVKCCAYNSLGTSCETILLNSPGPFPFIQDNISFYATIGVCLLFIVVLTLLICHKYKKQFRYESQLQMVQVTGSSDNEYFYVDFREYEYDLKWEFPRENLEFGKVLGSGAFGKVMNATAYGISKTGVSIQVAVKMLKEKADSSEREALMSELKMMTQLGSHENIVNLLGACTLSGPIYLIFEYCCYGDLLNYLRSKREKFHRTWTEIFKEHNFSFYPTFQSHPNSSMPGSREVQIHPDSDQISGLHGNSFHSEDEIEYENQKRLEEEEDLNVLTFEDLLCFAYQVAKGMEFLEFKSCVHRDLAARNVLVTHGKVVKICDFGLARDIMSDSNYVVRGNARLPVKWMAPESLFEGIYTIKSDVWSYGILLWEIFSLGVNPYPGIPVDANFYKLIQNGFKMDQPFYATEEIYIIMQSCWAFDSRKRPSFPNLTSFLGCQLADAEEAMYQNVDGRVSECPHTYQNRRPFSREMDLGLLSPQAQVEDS
Method: as §3

[8] = target: CDK19 (Homo sapiens, UniProt Q9BWU1); experiment: In vitro kinase assay ([γ-33P]-ATP); format: biochemical; conditions: ATP at apparent Km of the kinase
Chain of CDK19 (Q9BWU1 whole entry, species assumed): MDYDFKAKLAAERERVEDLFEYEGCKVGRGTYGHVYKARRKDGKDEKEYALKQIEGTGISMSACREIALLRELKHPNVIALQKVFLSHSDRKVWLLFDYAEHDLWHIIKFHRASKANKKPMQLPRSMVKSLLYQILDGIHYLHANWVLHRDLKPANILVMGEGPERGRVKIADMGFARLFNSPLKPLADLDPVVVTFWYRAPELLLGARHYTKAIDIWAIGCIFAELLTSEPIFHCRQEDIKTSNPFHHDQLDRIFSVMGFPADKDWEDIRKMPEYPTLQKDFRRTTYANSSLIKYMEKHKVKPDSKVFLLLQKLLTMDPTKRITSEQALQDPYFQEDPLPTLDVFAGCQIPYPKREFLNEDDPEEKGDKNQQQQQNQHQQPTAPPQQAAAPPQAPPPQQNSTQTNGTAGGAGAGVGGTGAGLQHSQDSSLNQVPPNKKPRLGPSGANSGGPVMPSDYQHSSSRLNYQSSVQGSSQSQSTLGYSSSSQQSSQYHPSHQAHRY
Chain of CDK19 (P24863 whole entry partner, species assumed): as the sequence (P24863 whole entry partner, species assumed) above
Method: as §3

[9] = target: VEGFR-2 (Homo sapiens, UniProt P35968); experiment: In vitro kinase assay ([γ-33P]-ATP); format: biochemical; conditions: ATP at apparent Km of the kinase
Chain of VEGFR-2 (P35968 20-1356): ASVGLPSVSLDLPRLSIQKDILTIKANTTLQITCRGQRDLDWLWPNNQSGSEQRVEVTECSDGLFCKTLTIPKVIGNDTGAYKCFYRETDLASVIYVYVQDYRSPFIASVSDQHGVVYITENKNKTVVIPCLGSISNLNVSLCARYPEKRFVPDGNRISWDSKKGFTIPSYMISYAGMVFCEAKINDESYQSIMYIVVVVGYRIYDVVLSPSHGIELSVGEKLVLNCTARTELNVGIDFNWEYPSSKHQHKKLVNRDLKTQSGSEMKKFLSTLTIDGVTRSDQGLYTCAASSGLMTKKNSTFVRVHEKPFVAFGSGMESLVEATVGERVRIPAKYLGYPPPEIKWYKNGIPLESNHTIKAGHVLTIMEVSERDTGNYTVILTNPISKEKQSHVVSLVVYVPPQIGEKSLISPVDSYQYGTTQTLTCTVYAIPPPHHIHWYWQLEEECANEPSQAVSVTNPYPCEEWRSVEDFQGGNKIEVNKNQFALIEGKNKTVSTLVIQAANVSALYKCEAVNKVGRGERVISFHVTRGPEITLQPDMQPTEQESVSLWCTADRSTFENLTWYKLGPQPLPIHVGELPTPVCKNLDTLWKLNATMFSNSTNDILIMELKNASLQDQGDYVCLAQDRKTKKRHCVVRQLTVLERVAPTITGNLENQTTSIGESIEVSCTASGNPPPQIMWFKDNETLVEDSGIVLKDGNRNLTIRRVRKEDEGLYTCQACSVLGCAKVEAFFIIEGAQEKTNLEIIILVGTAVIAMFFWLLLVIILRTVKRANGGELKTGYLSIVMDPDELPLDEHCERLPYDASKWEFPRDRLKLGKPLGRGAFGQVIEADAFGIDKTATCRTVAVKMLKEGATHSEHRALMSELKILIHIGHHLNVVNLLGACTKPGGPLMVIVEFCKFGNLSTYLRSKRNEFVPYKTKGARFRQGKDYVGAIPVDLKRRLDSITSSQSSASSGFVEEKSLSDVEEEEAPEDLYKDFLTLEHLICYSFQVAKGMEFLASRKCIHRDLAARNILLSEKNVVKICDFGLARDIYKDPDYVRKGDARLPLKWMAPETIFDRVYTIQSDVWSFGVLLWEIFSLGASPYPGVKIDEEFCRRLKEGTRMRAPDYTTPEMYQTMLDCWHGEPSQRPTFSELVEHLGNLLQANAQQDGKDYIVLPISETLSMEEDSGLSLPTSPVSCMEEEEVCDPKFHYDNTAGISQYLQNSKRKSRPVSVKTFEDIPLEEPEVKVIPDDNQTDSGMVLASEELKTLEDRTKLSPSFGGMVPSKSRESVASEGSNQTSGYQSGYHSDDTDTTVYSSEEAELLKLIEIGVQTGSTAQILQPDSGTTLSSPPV
Method: as §3

[10] = Mus musculus, BaF3, concentration required to reduce cell viability to 50%, BA/F3 cells expressing PDGFR, 20-48 hrs, read-out: IC50 (nM) MTS Assay 1

Row | SMILES | IC50 [3] [nM] | IC50 [4] [nM] | IC50 [5] [nM] | IC50 [6] [nM] | IC50 [7] [nM] | IC50 [8] [nM] | IC50 [9] [nM] | IC50 [2, 10] [nM] | Inhibition of PDGFRβ signaling (PDGFRβ autophosphorylation, Shp2 phosphorylation) [1] | Activity in MTS cell viability assay compared to imatinib and quizartinib controls [2] | IC50 ([2]; Mus musculus, BaF3, read-out: IC50 (nM) MTS Assay 1) [nM] | IC50 ([2]; concentration required to reduce cell viability to 50%, BA/F3 cells expressing PDGFR, 20-48 hrs, read-out: IC50 (nM) MTS Assay 1) [nM]
1 | Cn1nc(NC(=O)COc2ccc(-c3cnc4ccccn34)cn2)cc1C(F)(F)F [Example 1] | < 500 | < 500 | < 500 | < 500 | < 500 | < 500 | < 500 | – | able to inhibit PDGFRβ signaling | improved activity when compared to the imatinib and quizartinib controls | < 500 | –
2 | Cc1ccc(NC(=O)COc2ccc(-c3cnc4ccccn34)cn2)cc1C(F)(F)F [Example 2] | – | – | – | – | – | – | – | – | able to inhibit PDGFRβ signaling | – | – | –
3 | Cc1cnc(NC(=O)COc2ccc(-c3cnc4cnccn34)cn2)cc1C(F)(F)F [Example 3] | – | – | – | – | – | – | – | – | – | improved activity when compared to the imatinib and quizartinib controls | – | –
4 | Cc1ccc(NC(=O)COc2ccc(-c3cnc4cnccn34)c(F)n2)cc1C(F)(F)F [Example 7] | < 500 | – | – | – | – | – | – | < 500 | – | – | – | –
5 | Cn1nc(NC(=O)COc2ccc(-c3cnc4cnccn34)cn2)cc1C(F)(F)F [Example 9] | – | – | – | < 500 | – | < 500 | – | – | – | – | – | < 500
6 | Cc1ccc(NC(=O)COc2ccc(-c3cnc4ccc(-c5ccc(C(=O)N6CCOCC6)cc5)cn34)cc2)cc1C(F)(F)F [Example 10] | – | – | – | – | – | – | – | < 500 | – | – | – | –
7 | O=C(Nc1cc(C(F)(F)F)c(Cl)cn1)C1(Oc2ccc(-c3cnc4cnccn34)cn2)CC1 [Example 12] | – | > 5000 | > 5000 | > 5000 | > 5000 | > 5000 | > 5000 | – | – | – | – | –
8 | CC(Oc1ccc(-c2cnc3cnccn23)cn1)C(=O)Nc1cc(C(F)(F)F)c(Cl)cn1 (stereo not drawn) [Example 13] | – | 500 to 5000 | 500 to 5000 | 500 to 5000 | > 5000 | 500 to 5000 | 500 to 5000 | – | – | – | – | –
9 | Cc1ccc(NC(=O)c2ccc(Nc3cnc4cnccn34)cc2)cc1C(F)(F)F [Example 14] | – | > 5000 | > 5000 | 500 to 5000 | > 5000 | 500 to 5000 | > 5000 | – | – | – | – | –
10 | Cn1nc(NC(=O)COc2ccc(-c3cnn4cccnc34)cc2)cc1C(F)(F)F [Example 19] | – | < 500 | < 500 | < 500 | < 500 | < 500 | < 500 | – | – | – | – | –

Further lines, with some results ahead:

Row | IC50 [3] [nM] | IC50 [4] [nM] | IC50 [5] [nM] | IC50 [6] [nM] | IC50 [7] [nM] | IC50 [8] [nM] | IC50 [9] [nM] | IC50 [2, 10] [nM] | SMILES | Inhibition of PDGFRβ signaling (PDGFRβ autophosphorylation, Shp2 phosphorylation) [1] | Activity in MTS cell viability assay compared to imatinib and quizartinib controls [2] | IC50 ([2]; Mus musculus, BaF3, read-out: IC50 (nM) MTS Assay 1) [nM] | IC50 ([2]; concentration required to reduce cell viability to 50%, BA/F3 cells expressing PDGFR, 20-48 hrs, read-out: IC50 (nM) MTS Assay 1) [nM]
11 | < 500 | – | – | – | – | – | – | 500 to 5000 | Cn1nc(NC(=O)COc2ccc(-c3cnc4cnccn34)c(F)n2)cc1C(F)(F)F [Example 6] | – | – | – | –
12 | < 500 | < 500 | < 500 | < 500 | < 500 | < 500 | < 500 | – | Cc1ccc(NC(=O)CNc2ccc(-c3cnc4cnccn34)cc2)cc1C(F)(F)F [Example 15] | – | – | – | –
13 | – | < 500 | < 500 | < 500 | < 500 | < 500 | < 500 | – | O=C(CNc1ccc(-c2cnc3cnccn23)cc1)Nc1cc(C(F)(F)F)c(Cl)cn1 [Example 16] | – | – | – | –
14 | – | < 500 | < 500 | < 500 | < 500 | < 500 | < 500 | – | Cn1nc(NC(=O)CNc2ccc(-c3cnc4cnccn34)cc2)cc1C(F)(F)F [Example 17] | – | – | – | –
15 | – | < 500 | < 500 | < 500 | < 500 | < 500 | < 500 | – | Cn1nc(NC(=O)CNc2ccc(-c3cnc4cnccn34)c(F)c2)cc1C(F)(F)F [Example 18] | – | – | – | –
